Data taken from patent publication US20090155828A1, “METHODS OF DETECTING PROSTATE CANCER” (The Burnham Institute for Medical Research, priority 2001, published 2009).
Entries after “also recorded” stand apart in the source; their conditions may differ.

Key:
[1] = tested on: tumor cells in culture; conditions: cited from earlier work; for Apoptosis of tumor cells: tumor / cancer cells in culture
[2] = tested on: LNCaP cells; assay: Androgen effects on LNCaP cell proliferation; assay type: cell-based, human; conditions: six days
Experimental: LNCaP cell proliferation was measured in the presence of either 0.1 nM or 100 nM DHT. Cells were plated in 24 well plates in RPMI 1640 with no phenol red and supplemented with charcoal stripped FBS and allowed to adhere overnight. The following day media was replaced, with or without DHT, and cells were grown for six days with media change every second day. Cells were counted using a hemocytometer.
In order to assess the effects of androgen (DHT) treatment on cell proliferation, LNCaP cells were plated in either 150 mm dishes (Falcon) or in 12 well tissue culture plates (Falcon) in complete medium. After 24 hr, the medium was replaced with RPMI containing no phenol red and supplemented with 10% charcoal stripped fetal bovine serum and the appropriate concentration of DHT. The medium was replaced every 48 hr for six days. At the indicated time points, the cells were removed by treatment with trypsin-EDTA and counted with a hemocytometer.
(§1) It is well established that androgen (DHT) specifically, promotes proliferation of LNCaP cells in vitro. […] LNCaP cell proliferation was measured in the presence of either 0.1 nM or 100 nM DHT. […] Cells were counted using a hemocytometer. On day six, the aggregate serine hydrolase activity profiles were also measured. […] Specific labeling was assessed by comparison to a preheated control.

[3] = tested on: fatty acid synthase (FAS); assay: Fatty acid synthase activity in DHT treated LNCaP cells, fp-PEG-Tamra profile; assay type: cell-based, human; conditions: six days
Experimental: (§2) Serine hydrolase activity profiles of the prostate cell lines were measured using the labeled fluorophosphonate probe fp-PEG-Tamra. Briefly, 40 μg of either the soluble or insoluble fractions were treated with 2 μM fp-PEG-Tamra for 1 hr at RT. The labeling reactions were stopped by the addition of Laemmli buffer followed by boiling for 5 min. As a control for non-specific reaction of the probe, a duplicate sample was boiled for 10 min prior to labeling with fp-PEG-Tamra. The labeled samples were resolved by 10% SDS-PAGE and visualized by scanning with a laser at 605 nm.
as §1, with “vitro. While the direct cause for this is not completely understood, it is clear that changes in gene and protein levels are associated with proliferation. As such, it was hypothesized that androgen treatment of LNCaP cells would change the aggregate activity profile.” for “vitro.”

[4] = tested on: prolyl endopeptidase (PEP); assay: Prolyl endopeptidase activity in DHT treated LNCaP cells, fp-PEG-Tamra profile; assay type: cell-based, human; conditions: six days
Experimental: as §2
as §1, with “vitro. While the direct cause for this is not completely understood, it is clear that changes in gene and protein levels are associated with proliferation. As such, it was hypothesized that androgen treatment of LNCaP cells would change the aggregate activity profile.” for “vitro.”

[5] = tested on: PSA; assay: PSA activity in DHT treated LNCaP cells, fp-PEG-Tamra profile; assay type: cell-based, human; conditions: six days
Experimental: as §2
as §1, with “vitro. While the direct cause for this is not completely understood, it is clear that changes in gene and protein levels are associated with proliferation. As such, it was hypothesized that androgen treatment of LNCaP cells would change the aggregate activity profile.” for “vitro.”

[6] = tested on: N-acyl peptide hydrolase (NAPH); assay: N-acyl peptide hydrolase activity in DHT treated LNCaP cells, fp-PEG-Tamra profile; assay type: cell-based, human; conditions: 100 nM DHT, six days
Experimental: as §2
as §1, with “vitro. While the direct cause for this is not completely understood, it is clear that changes in gene and protein levels are associated with proliferation. As such, it was hypothesized that androgen treatment of LNCaP cells would change the aggregate activity profile.” for “vitro.”

[7] = tested on: PSA mRNA; assay: PSA mRNA level in DHT treated LNCaP cells by real time PCR; assay type: cell-based, human
Experimental: (§3) The serine hydrolase activity levels in the four prostate cell lines, or the change in serine hydrolase activity with DHT treatment, as assessed by fp-PEG-Tamra, was compared to the mRNA level of the cognate enzymes. Total RNA was isolated with Trizol (Life Technologies) from LNCaP, LNCaP treated with DHT, DU-145, PC-3 or PrEC cell lines. Reverse transcription was performed with Superscript II. Real time PCR was performed using the Roche SYBER Green DNA kit and a Roche LightCycler according to manufacturer instructions. Primers (20mers) were used at a final concentration of […], and 45 cycles were used.

[8] = tested on: PEP mRNA; assay: PEP mRNA level in DHT treated LNCaP cells by real time PCR; assay type: cell-based, human; conditions: 100 nM DHT
Experimental: as §3

[9] = tested on: NAPH mRNA; assay: NAPH mRNA level in DHT treated LNCaP cells by real time PCR; assay type: cell-based, human; conditions: 100 nM DHT
Experimental: as §3

[10] = tested on: tumor growth; conditions: cited from earlier work
[11] = tested on: DPP-like activity in LNCaP soluble fraction; assay: Inhibition of DPP-like activity with isoleucine thiozolidide, fp-PEG-Tamra labeling, LNCaP soluble fraction; assay type: biochemical, human; conditions: for Reaction of fp-PEG-Tamra probe with DPP-like protein (words): LNCaP lysate preincubated with IT, 97 kDa band
Experimental: (§4) . Each lysate was pre-incubated with 100 TM IT for 20 min at RT. Residual DPP-like activity was evaluated by treatment with 2 TM fp-PEG-Tamma, as described above, followed by resolution with 10% SDS-PAGE and comparison to samples not treated with IT. Inhibition of DPP activity was quantified by measuring the fluorescence intensity of the conjugate between fp-PEG-TAMRA and the DPP. The activity of a non-DPP enzyme was used to standardize the specific effects if IT.
(§5) One member of this family, DPP-IV, has been investigated as a target in type II diabetes. As a result of those investigations, several peptidic antagonists of DPP IV have been synthesized (Pederson et al., Diabetes 47:1253-58; 1998; Pauly et al., Metabolism 48(3):385-389, 1999). […]. The sensitivity of enzyme activity to IT was tested in the soluble fractions of the LNCaP, DU-145, and PC-3 prostate cancer cells lines. Each lysate was pre-incubated with 100 TM IT for 20 min at RT. Residual DPP-like activity was evaluated by the addition of 2 TM fp-PEG-Tamra, followed by resolution with 10% SDS-PAGE and comparison to the non-treated samples. […]. […] Specific labeling was determined by comparison to preheated controls.
In each of the three prostate cancer cell lines, a novel protein with homology to DPP was identified using MS/MS. The similarity to DPP was based on fold and function assignment of the corresponding cDNA and its cognate protein (Zhang et al., Prot. Sci. 8:1104-1115, 1999). […].

[12] = tested on: non-DPP proteins (other serine hydrolase activity); assay: Specificity of IT: fp-PEG-Tamra labeling of non-DPP serine hydrolases in prostate cancer cell lysates; assay type: biochemical, human; conditions: soluble fractions of LNCaP, DU-145, PC-3, 100 TM IT
Experimental: as §4, §5
In each of the three prostate cancer cell lines, a novel protein with homology to DPP was identified using MS/MS. […]

[13] = listed as isoleucine thiazolidide

In the case of `C=C1C(=O)OC(CCCCCCCC)C1C(=O)O` (centres unmarked) [Compound C75], the “Cytotoxicity to cancer cells” value [1] is given as “cytotoxic” and the “Apoptosis of tumor cells” value [1] is given as “in some cases induce apoptosis”.
For `C[C@]12CCC(=O)C[C@@H]1CC[C@@H]1[C@@H]2CC[C@]2(C)[C@@H](O)CC[C@@H]12` [DHT], the LNCaP cell proliferation ([2]; 0.1 nM DHT) was “promoted cell proliferation”, the LNCaP cell proliferation ([2]; 100 nM DHT) was “cell proliferation was inhibited” and the “Change of FAS activity” value ([3]; 0.1 nM DHT) was “increased three-fold to five-fold”. The “Change of FAS activity” value ([3]; 100 nM DHT) was “increased”, the “Change of PEP activity” value ([4]; 0.1 nM DHT) was “decreased” and the “Change of PEP activity” value ([4]; 100 nM DHT) was “dramatic drop”. For the same compound, the “Change of PSA activity” value ([5]; 0.1 nM DHT) was “no noticeable change”, the “Change of PSA activity” value ([5]; 100 nM DHT) was “increased” and the “Change of NAPH activity” value [6] was “dramatic drop”. The “Change of PSA mRNA level” value ([7]; 0.1 nM DHT, six days) was “increased over eleven-fold”, the “Change of PSA mRNA level” value ([7]; 100 nM DHT) was “large increase” and the “Change of PEP mRNA level” value [8] was “increased”. For the same compound, the “Change of NAPH mRNA level” value [9] was “slightly greater than two-fold”.
In the case of `C/C=C/C/C=C/CCC(=O)[C@H]1O[C@H]1C(N)=O` [cerulenin], the “Cytotoxicity to cancer cells” value [1] is given as “cytotoxic”, the “Apoptosis of tumor cells” value [1] is given as “induces apoptosis; also recorded: in some cases induce apoptosis” and the “Tumor growth in nude mice” value [10] is given as “inhibit tumor growth”.
In the case of `CC[C@H](C)[C@H](N)C(=O)N1CCSC1` [IT, isoleucine thiazolidide], the “Reaction of fp-PEG-Tamra probe with DPP-like protein (words)” value [11] is reported as “inhibited”, the “Reaction of fp-PEG-Tamra probe with DPP-like protein (words)” value [11, 13] is reported as “dramatically reduced” and the DPP-like activity inhibited ([11]; LNCaP soluble fraction, pre-incubated with 100 TM IT 20 min RT, 2 TM fp-PEG-Tamra) is reported as 63%. The “Inhibition of non-DPP proteins / other serine hydrolase activity” value [12] was “No inhibition; also recorded: no other serine hydrolase activity was reduced” and the “Inhibition of non-DPP proteins / other serine hydrolase activity” value [12, 13] was “No other enzyme activities were inhibited”.
